Publication PMC5571359, “Screening the Medicines for Malaria Venture Pathogen Box across Multiple Pathogens Reclassifies Starting Points for Open-Source Drug Discovery” (Antimicrobial Agents and Chemotherapy, 2017)
Read-outs that look alike come from different tables or passages of the source.

Tests used:
T. brucei rhodesiense = conditions: ref Pbox supporting information, cited from earlier work; for IC50: read-out: T .b. rohdensie Pbox IC50
T. brucei brucei = conditions: ref Pbox supporting information, cited from earlier work
[1] = test system: T. cruzi C4 β-galactosidase reporter parasite in MRC 5SV2 host cells; conditions: cited from earlier work
[2] = test system: Plasmodium falciparum 3D7 asexual blood stage; assay: microbe, parasite or virus in culture
HepG2 = conditions: HepG2; ref PBox supporting information; cited from earlier work
HEK293 cells = assay: HEK293 resazurin cell cytotoxicity assay; conditions: Homo sapiens, HEK293, read-out: HEK % Inhibition 20uM/IC50 Discovery Biology
[3] = test system: L. infanium (macrophages); parameters: method as in Pbox supporting information; conditions: ref Pbox supporting information; cited from earlier work
[4] = test system: NF54-pfs16-LUC-GFP stage IV gametocytes; assay: Plasmodium falciparum late stage gametocyte (LSG) image-based assay; assay type: cell-based; conditions: Plasmodium falciparum, NF54, read-out: Antiplasmodial IC50 (GAM / LSG), PBox compounds, stage IV gametocytes, single determination
[5] = test system: T. cruzi intracellular amastigotes; assay: Intracellular anti-Trypanosoma cruzi image-based assay (amastigotes); assay type: cell-based; conditions: for IC50: intracellular amastigotes
[6] = test system: T. b. brucei 427 bloodstream trypanosomes; assay: T. b. brucei resazurin viability assay; assay type: cell-based, Trypanosoma brucei brucei; conditions: Trypanosoma brucei
[7] = read-out: T.b. brucei Pbox IC50
[8] = ref Pbox supporting information, read-out: T. cruzi Pbox IC50
[9] = PBox compounds, read-out: IC50 T. brucei brucei (Discovery Biology)
[10] = 7 days exposure, ref PBox supporting information, read-out: T. cruzi IC50 in the PBox supporting information file
[11] = Trypanosoma cruzi, read-out: T cruzi Discovery Biology IC50
[12] = read-out: T b.brucei Discovery Biology IC50

| Structure (SMILES) | IC50 (T. brucei rhodesiense) | IC50 (T. brucei brucei; [7]) | IC50 [1, 8] | IC50 ([2]; 3D7, read-out: Antiplasmodial IC50 (ABS), PBox compounds, P. falciparum 3D7) | HepG2 PBox CC20 (HepG2) | IC50 (HEK293 cells) | IC50 [3] | IC50 [4] | IC50 ([2]; 3D7, read-out: Antiplasmodial IC50 (ABS)) | IC50 ([5]; Trypanosoma cruzi, PBox compounds, 48 h exposure, read-out: IC50 T. cruzi (Discovery Biology)) | activity against T. brucei rhodesiense (T. brucei rhodesiense) | IC50 (T. brucei brucei; read-out: T. brucei brucei IC50, PBox) | IC50 [6, 9] | IC50 [1, 10] | IC50 [5, 11] | IC50 [6, 12] | Emax ([5]; Trypanosoma cruzi, PBox kinetoplastid set compounds active against T. cruzi alone, read-out: Emax against T. cruzi (subefficacious effect)) | activity against T. cruzi at 8 μM in the Discovery Biology assay ([5]; 8 μM) |
| --- | --- | --- | --- | --- | --- | --- | --- | --- | --- | --- | --- | --- | --- | --- | --- | --- | --- | --- |
| COc1ccc(C2=NCCN2)cc1-c1cn(-c2cccc(C3=NCCN3)c2)nn1 [MMV688547] | 1.63 µM | > 32 µM | > 32 µM | 1.02 µM | >80 µM | > 20 µM | > 32 µM | – | – | – | – | – | – | – | – | – | – | – |
| CO/N=C(\C(=O)OC)c1ccccc1CO/N=C(\C)c1cccc(C(F)(F)F)c1 [MMV688754] | 26.2 µM | 33.6 µM | 1.94 µM | – | – | > 20 µM | > 64 µM | 0.14 µM | 0.19 µM | – | – | – | – | – | – | – | – | – |
| Cc1ccc(S(=O)(=O)Nc2ccc(CN3CCN(C(=O)c4cccc(C#N)c4)CC3)cc2)cc1 [MMV689028] | 0.12 µM | – | – | – | – | > 20 µM | 32 µM | – | – | 0.67 µM | demonstrated activity | 0.14 µM | 0.24 µM | 1.2 µM | – | – | – | – |
| CC1CCCCN1C(=O)NCCc1coc(-c2ccc(F)cc2)n1 (stereo not drawn) [MMV688797] | 0.11 µM | 0.13 µM | 0.48 µM | – | – | > 20 µM | > 64 µM | – | – | – | – | – | – | – | 0.37 µM | 0.13 µM | – | – |
| CNC(=O)C1Cc2ccccc2N1C(=O)Cc1ccc(F)cc1 (stereo not drawn) [MMV188296] | 0.38 µM | 0.49 µM | > 64 µM | – | – | > 20 µM | > 64 µM | – | – | – | – | – | – | – | – | 1.47 µM | – | – |
| CCC(=O)Nc1ccccc1C(=O)Nc1ccccn1 [MMV202553] | 1.31 µM | 2.46 µM | > 64 µM | – | – | > 20 µM | > 64 µM | – | – | – | – | – | 1 µM | – | – | 1.01 µM | – | – |
| c1ccc(Oc2ccc(-c3cc(N4CCNCC4)[nH]n3)cc2)cc1 [MMV687706] | 0.97 µM | 0.99 µM | 4.48 µM | – | 6.4 µM | > 20 µM | 4.06 µM | – | – | – | – | – | – | – | – | 5.05 µM | – | – |
| Cc1nn2c(O)c3c(nc2c1-c1ccc(F)cc1)CCCC3 [MMV099637] | 0.48 µM | 1.94 µM | 2.21 µM | – | – | > 20 µM | 50.4 µM | – | – | – | – | – | – | – | – | 4.43 µM | – | – |
| O=C(NCCc1ccn(-c2ccccc2)n1)C1CCCCC1 [MMV688795] | < 0.13 µM | 0.15 µM | 0.74 µM | – | – | > 20 µM | > 64 µM | – | – | – | – | – | – | – | 0.93 µM | 0.27 µM | – | – |
| COc1cc(C2=NCCN2)ccc1-n1cc(-c2cccc(C3=NCCN3)c2)nn1 [MMV688474] | 3.81 µM | > 32 µM | > 32 µM | – | >80 µM | – | > 32 µM | – | – | – | – | – | – | – | – | – | – | – |
| c1cc(C2=NCCN2)cc(-c2cc(-c3ccc(C4=NCCN4)cc3)no2)c1 [MMV688361] | 3 µM | 5.63 µM | > 32 µM | – | 4.5 µM | – | > 32 µM | – | – | – | – | – | – | – | – | – | – | – |
| c1ccc(Oc2ccc(-c3cc(C4CCOCC4)[nH]n3)cc2)cc1 [MMV687762] | 3.77 µM | 7.58 µM | 16.4 µM | – | 10.8 µM | – | > 32 µM | – | – | – | – | – | – | – | – | 1.79 µM | – | – |
| CN1CCCN(C(c2ccccc2)c2ccc(Cl)cc2)CC1 (stereo not drawn) [MMV004168] | 1.94 µM | 4.64 µM | 9.44 µM | – | – | – | 36.3 µM | – | – | – | – | – | – | – | – | – | – | – |
| CC1COC(Cn2cncn2)(c2ccc(Oc3ccc(Cl)cc3)cc2Cl)O1 (stereo not drawn) [MMV688943, difenoconazole] | 26.2 µM | 32.5 µM | 0.015 µM | – | – | > 20 µM | 44.7 µM | – | – | – | – | – | – | – | 0.1 µM | – | < 100% | – |
| O=C(NCc1nnc2n1CCCCC2)c1ccc(-c2ccc(F)cc2)o1 [MMV688796] | 0.13 µM | 0.1 µM | 2.07 µM | – | – | > 20 µM | > 64 µM | – | – | – | demonstrated activity | – | – | – | 1.52 µM | 0.23 µM | – | – |
| Cc1nn2c(=O)c3c([nH]c2c1-c1ccc(Cl)cc1)CCCC3 [MMV688776] | 0.14 µM | 0.5 µM | 0.72 µM | – | – | > 20 µM | 44 µM | – | – | – | – | – | – | < 1 µM | – | 1.79 µM | – | no activity |
| CS(=O)(=O)c1ccccc1C(=O)N(Cc1ccccc1)c1ccccc1 [MMV688798] | 0.4 µM | 0.56 µM | 35.4 µM | – | – | > 20 µM | > 64 µM | – | – | – | – | – | – | – | – | 0.5 µM | – | – |
